Results as given in US6462060B2, “Heterocyclic-hydroxyimino-fluorene nuclei compounds and pharmaceutical compositions for inhibiting protein kinases, and methods for their use” (Agouron Pharmaceuticals, Inc., priority 2000, dated 2002).

Assays:
[1] = molecular target: T1, phosphorylated VEGF-R2Δ50 (FLVK-P) (Homo sapiens, UniProt P35968, DEL940-989/E990V); assay: VEGF-R2 coupled spectrophotometric (FLVK-P) assay; type: biochemical; details: phosphorylated VEGF-R2Δ50, 1 mM ATP
T1 construct: VEGF-R2Δ50 contains residues 806-939 and 990-1171; made in house; host or cells: baculovirus/insect cell system
T1 sequence (P35968 with tags, fused parts or gaps DEL940-989/E990V limits assumed): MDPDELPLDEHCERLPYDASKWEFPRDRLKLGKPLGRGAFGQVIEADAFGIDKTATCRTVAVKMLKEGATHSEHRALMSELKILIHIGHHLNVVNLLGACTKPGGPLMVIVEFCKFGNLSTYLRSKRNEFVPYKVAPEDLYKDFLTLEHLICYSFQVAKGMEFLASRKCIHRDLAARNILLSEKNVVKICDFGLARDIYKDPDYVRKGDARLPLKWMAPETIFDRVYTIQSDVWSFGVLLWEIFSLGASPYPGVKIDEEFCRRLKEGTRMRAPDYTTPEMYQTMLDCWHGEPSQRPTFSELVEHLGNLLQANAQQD
From the text: VEGF-R2 Construct for Assay: A construct (VEGF-R2Δ50) of the cytosolic domain of human vascular endothelial growth factor receptor 2 (VEGF-R2) lacking the 50 central residues of the 68 residues of the kinase insert domain was expressed in a baculovirus/insect cell system. Of the 1356 residues of full-length VEGF-R2, VEGF-R2Δ50 contains residues 806-939 and 990-1171, and also one point mutation (E990V) within the kinase insert domain relative to wild-type VEGF-R2. See McTigue et al., Structure, 7, 319-330 (1999); U.S. patent application Ser. No. 09/390,326, filed Sep. 7, 1999. Autophosphorylation of the purified construct was performed by incubation of the enzyme at a concentration of 4 μM in the presence of 3 mM ATP and 40 mM MgCl2 in 100 mM Hepes, pH 7.5, containing 5% glycerol and 5 mM DTT, at 4° C. for 2 h. […] See Parast et al., Biochemistry, 37, 16788-16801 (1998).
Coupled Spectrophotometric (FLVK-P) Assay
The production of ADP from ATP that accompanies phosphoryl transfer was coupled to oxidation of NADH using phosphoenolpyruvate (PEP) and a system having pyruvate kinase (PK) and lactic dehydrogenase (LDH). The oxidation of NADH was monitored by following the decrease of absorbance at 340 nm (e340=6.22 cm^−1 mM^−1) using a Beckman DU 650 spectrophotometer. Assay conditions for phosphorylated VEGF-R2Δ50 (indicated as FLVK-P in the tables below) were the following: 1 mM PEP; 250 μM NADH; 50 units of LDH/mL; 20 units of PK/mL; 5 mM DTT; […]; 1 mM ATP; and 25 mM MgCl2 in 200 mM Hepes, pH 7.5. Assay conditions for unphosphorylated VEGF-R2Δ50 (indicated as FLVK in the tables) were the following: 1 mM PEP; 250 ,M NADH; 50 units of LDH/mL; 20 units of PK/mL; 5 mM DTT; 20 mM poly(E4Y1); 3 mM ATP; and 60 mM MgCl2 and 2 mM MnCl2 in 200 mM Hepes, pH 7.5. Assays were initiated with 5 to 40 nM of enzyme. Ki values were determined by measuring enzyme activity in the presence of varying concentrations of test compounds. The data were analyzed using Enzyme Kinetic and Kaleidagraph software.

[2] = molecular target: T2, CHK-1 KH289 (Homo sapiens, UniProt O14757); assay: CHK-1 assay (coupled spectrophotometric, Syntide-2); type: biochemical; details: for Ki: 10 nM CHK-1 KH289, 0.15 mM ATP
T2 construct: CHK-1 KH289 contains residues 1-289 of human CHK-1; 6xHis (C); made in house; host or cells: baculovirus/insect cell system
T2 sequence (O14757 1-289): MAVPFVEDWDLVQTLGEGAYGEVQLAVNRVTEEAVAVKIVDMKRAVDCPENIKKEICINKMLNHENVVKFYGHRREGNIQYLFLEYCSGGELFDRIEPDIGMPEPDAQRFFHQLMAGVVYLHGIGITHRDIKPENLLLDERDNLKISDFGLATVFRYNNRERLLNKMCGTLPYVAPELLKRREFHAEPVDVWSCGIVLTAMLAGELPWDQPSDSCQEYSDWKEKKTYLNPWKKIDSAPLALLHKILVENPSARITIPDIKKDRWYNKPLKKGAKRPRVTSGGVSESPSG
From the text: CHK-1 KH289 contains residues 1-289 of human CHK-1 including the kinase domain. It contains 6 histidine residues (6×His-tag) at the C-terminus of residue 289. The protein was expressed in a baculovirus/insect cell system and purified by conventional chromatographic techniques.
(§1) The production of ADP from ATP that accompanies phosphoryl transfer to the synthetic substrate peptide Syntide-2 ([…]) was coupled to oxidation of NADH using phosphoenolpyruvate (PEP) through the actions of pyruvate kinase (PK) and lactic dehydrogenase (LDH). The oxidation of NADH was monitored by following the decrease of absorbance at 340 nm (ε340=6.22 cm^−1 mM^−1) using a HP8452 spectrophotometer. Typical reaction solutions contained: 4 mM PEP; 0.15 mM NADH; 28 units of LDH/ml; 16 units of PK/ml; 3 mM DTT; 0.125 mM Syntide2Σ; 0.15 mM ATP; 25 mM MgCl2 in 50 mM TRIS, pH 7.5; and 400 mM NaCl. Assays were initiated with 10 nM of CHK-1 KH289. Ki values were determined by measuring initial enzyme activity in the presence of varying concentrations of test compounds. The data were analyzed using Enzyme Kinetic and Kaleidagraph software.

[3] = molecular target: T3, CDK4/Cyclin D3 complex (Homo sapiens, UniProt P11802); assay: CDK4/Cyclin D assay (32P incorporation into Rb fragment); type: biochemical; details: apparent Ki; 50 nM CDK4/Cyclin D3 complex, 25 μM ATP
T3 construct: made in house; host or cells: insect cells co-infected with baculovirus expression vectors
T3 sequence (P11802 whole entry, the tested form may be a part): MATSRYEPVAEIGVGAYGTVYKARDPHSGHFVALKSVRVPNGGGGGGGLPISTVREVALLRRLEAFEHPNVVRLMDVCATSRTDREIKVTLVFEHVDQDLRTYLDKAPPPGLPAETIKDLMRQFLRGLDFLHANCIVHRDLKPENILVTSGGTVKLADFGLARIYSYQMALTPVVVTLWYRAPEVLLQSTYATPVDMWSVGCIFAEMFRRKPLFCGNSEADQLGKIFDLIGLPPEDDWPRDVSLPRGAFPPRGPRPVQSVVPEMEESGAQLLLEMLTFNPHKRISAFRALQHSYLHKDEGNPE
T3 sequence (P30281 whole entry partner, the tested form may be a part): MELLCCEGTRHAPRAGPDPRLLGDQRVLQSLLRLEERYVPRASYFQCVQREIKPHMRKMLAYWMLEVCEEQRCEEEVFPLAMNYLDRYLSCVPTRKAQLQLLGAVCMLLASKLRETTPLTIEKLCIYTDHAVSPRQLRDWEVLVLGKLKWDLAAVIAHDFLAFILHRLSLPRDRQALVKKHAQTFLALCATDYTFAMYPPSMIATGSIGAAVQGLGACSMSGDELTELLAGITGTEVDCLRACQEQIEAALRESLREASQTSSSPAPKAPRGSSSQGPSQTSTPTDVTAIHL
Method: CDK4/Cyclin D Construct for Assay: A complex of human CDK4 and cyclin D3, or a complex of cyclin D1 and a fusion protein of human CDK4 and glutathione-S-transferase (GST-CDK4), was purified using traditional biochemical chromatographic techniques from insect cells that had been co-infected with the corresponding baculovirus expression vectors.
(§2) CDK2/Cyclin A and CDK4/Cyclin D Assays
Cyclin-dependent kinase activity was measured by quantifying the enzyme-catalyzed, time-dependent incorporation of radioactive phosphate from [^32P]ATP into a recombinant fragment of the retinoblastoma protein. Unless noted otherwise, assays were performed in 96-well plates in a total volume of 50 μL, in the presence of 10 mM HEPES (N-[2-hydroxyethyl]piperazine-N′-[2-ethanesulfonic acid]) (pH 7.4), 10 mM MgCl2, 25 μM adenosine triphosphate (ATP), 1 mg/mL ovalbumin, 5 μg/mL leupeptin, 1 mM dithiothreitol, 10 mM β-glycerophosphate, 0.1 mM sodium vanadate, 1 mM sodium fluoride, 2.5 mM ethylene glycol-bis(β-aminoethyl ether)-N,N,N′N′-tetraacetic acid (EGTA), 2% (v/v) dimethylsulfoxide, and 0.03-0.2 μCi [^32P]ATP. The substrate (0.3-0.5 μg) was purified recombinant retinoblastoma protein fragment (Rb) (residues 386-928 of the native retinoblastoma protein; 62.3 kDa, containing the majority of the phosphorylation sites found in the native 1 06kDa protein, as well as a tag of six histidine residues for ease of purification). Reactions were initiated with CDK2 (150 nM CDK2/Cyclin A complex) or CDK4 (50 nM CDK4/Cyclin D3 complex), incubated at 30° C., and terminated after 20 minutes by the addition of ethylenediaminetetraacetic acid (EDTA) to 250 mM. The phosphorylated substrate was then captured on a nitrocellulose membrane using a 96-well filtration manifold, and unincorporated radioactivity was removed by repeated washing with 0.85% phosphoric acid. Radioactivity was quantified by exposing the dried nitrocellulose membranes to a phosphorimager. Apparent Ki values were measured by assaying enzyme activity in the presence of different compound concentrations and subtracting the background radioactivity measured in the absence of enzyme. The kinetic parameters (kcat, Km for ATP) were measured for each enzyme under the usual assay conditions by determining the dependence of initial rates on ATP concentration. The data were fit to an equation for competitive inhibition using Kaleidagraph (Synergy Software), or were fit to an equation for competitive tight-binding inhibition using the software KineTic (BioKin, Ltd.). The specific activity of CDK4 was the same whether complexed to full-length cyclin D3 or the truncated Cyclin D3 construct; both complexes also yielded very similar Ki values for selected inhibitors.

[4] = tested on: U2-OS cells; assay: Inhibition of cell growth, MTT assay, U2-OS; type: cell-based; details: Homo sapiens, U2OS, 144 h, four to six days incubation
Method: (§3) Inhibition of Cell Growth: Assessment of Anti-proliferation with U2-OS, SAOS2, HCT116 Cancer Cell Lines
(§4) Inhibition of cell growth was measured using the tetrazolium salt assay, which is based on the ability of viable cells to reduce 3-(4,5-dimethylthiazol-2-yl)-2,5-[2H]-diphenyltetrazolium bromide (MTT) to formazan (Mossman, J. Immunological Methods, 65, 55-58 (1983)). The water-insoluble purple formazan product was then detected spectrophotometrically. The HCT 116, U2-OS, and SAOS 2 cell lines were each grown in 96-well plates, respectively. Cells were plated in the appropriate medium at a volume of 135 μL/well in McCoy's 5A Medium. Plates were incubated for 4 h before addition of inhibitor compounds.
(§5) Different concentrations of inhibitor compounds were added in 0.5% (v/v) dimethylsulfoxide (μL/well), and cells were incubated at 37° C. (5% CO2) for four to six days (depending on cell type). At the end of the incubation, MTT was added to a final concentration of 0.2 mg/mL, and cells were incubated for 4 h more at 37° C. After centrifugation of the plates and removal of medium, the absorbance of the formazan (solubilized in dimethylsulfoxide) was measured at 540 nm. The concentration of inhibitor compound causing 50% inhibition of growth was determined from the linear portion of a semi-log plot of inhibitor concentration versus percentage inhibition. […]

[5] = molecular target: CDK2/Cyclin A complex (Homo sapiens, UniProt P24941); assay: CDK2/Cyclin A assay (32P incorporation into Rb fragment); type: biochemical; details: apparent Ki; 150 nM CDK2/Cyclin A complex, 25 μM ATP
From the text: CDK2/Cyclin A Construct for Assay: CDK2 was purified using published methodology (Rosenblatt et al., J. Mol. Biol., 230, 1317-1319 (1993)) from insect cells that had been infected with a baculovirus expression vector. Cyclin A was purified from E. coli cells expressing full-length recombinant cyclin A, and a truncated cyclin A construct was generated by limited proteolysis and purified as described previously (Jeffrey et al., Nature, 376, 313-320 (1995)).
as §2
Cyclin-dependent kinase activity was measured by quantifying the enzyme-catalyzed, time-dependent incorporation of radioactive phosphate from [^32P]ATP into a recombinant fragment of the retinoblastoma protein. […] The phosphorylated substrate was then captured on a nitrocellulose membrane using a 96-well filtration manifold, and unincorporated radioactivity was removed by repeated washing with 0.85% phosphoric acid. Radioactivity was quantified by exposing the dried nitrocellulose membranes to a phosphorimager. Apparent Ki values were measured by assaying enzyme activity in the presence of different compound concentrations and subtracting the background radioactivity measured in the absence of enzyme. The kinetic parameters (kcat, Km for ATP) were measured for each enzyme under the usual assay conditions by determining the dependence of initial rates on ATP concentration. […]

[6] = tested on: HCT 116 cells; assay: Inhibition of cell growth, MTT assay, HCT 116; type: cell-based; details: Homo sapiens, HCT-116, 144 h, four to six days incubation
Method: as §3, §4, §5

[7] = tested on: SAOS 2 cells; assay: Inhibition of cell growth, MTT assay, SAOS 2; type: cell-based; details: Homo sapiens, SAOS-2, 144 h, four to six days incubation, read-out: SAOS2 IC50
Method: as §3, §4, §5

[8] = molecular target: T4, CDS1/CHK-2 (CDS1 CE4) (Homo sapiens, UniProt O96017); assay: CDS1 assay (conditions identical to the CHK-1 assay); type: biochemical; details: 10 nM CDS1
T4 construct: CDS1 CE4 contains residues 209-502 including the kinase domain; 6xHis leader with thrombin site; first M absent from the expressed protein) (N); made in house; host or cells: E. coli
T4 sequence (O96017 209-502): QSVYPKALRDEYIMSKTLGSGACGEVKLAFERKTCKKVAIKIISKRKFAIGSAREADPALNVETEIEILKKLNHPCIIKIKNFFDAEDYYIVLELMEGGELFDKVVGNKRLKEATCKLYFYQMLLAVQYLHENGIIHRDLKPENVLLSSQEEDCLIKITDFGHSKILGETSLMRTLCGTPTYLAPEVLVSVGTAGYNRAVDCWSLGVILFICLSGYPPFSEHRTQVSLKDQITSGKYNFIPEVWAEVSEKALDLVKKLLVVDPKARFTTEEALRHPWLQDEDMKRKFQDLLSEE
From the text: CDS1 Construct for Assay: CDS1 CE4 contains residues 209-502 including the kinase domain of human CDS1/CHK-2 (GenBank accession number AFO86904, Matsuoka et al., Science, 282, 1893-97 (1998)). It contains the amino acid sequence: […] at the N-terminus of residue 209. (The first M is not present in the expressed protein due to post-translational processing of the N-terminus.) The protein was expressed in E. coli and purified by conventional chromatographic techniques.
as §1
The CDS 1 assay was prepared under identical conditions to that of the CHK-1 assay, except with the use of 10 nM of CDS1.

SMILES | Ki [1] [µM] | Ki [2] [µM] | Ki [3] [µM] | melting point [°C] | IC50 [4] [µM] | Ki [5] [µM] | IC50 [6] [µM] | IC50 [7] [µM] | Ki [8] [µM] | inhibition at 10 µM ([2]; at 10 μM, read-out: CHK-1 KH289 percent inhibition) [%] | inhibition at 25 µM ([2]; at 25 μM, read-out: CHK-1 KH289 percent inhibition) [%]
ON=C1c2ccccc2-c2cc3[nH]cnc3cc21 (mixture of isomers) [Example A, 9(E/Z)-Hydroxyimino-3H-fluoreno[2,3-d]imidazole] | 1.33 | 3.6 | 2.36 |  |  |  |  |  |  |  | 
Nc1nc2cc3c(cc2[nH]1)-c1ccccc1C3=NO (mixture of isomers) [Example B, 2-Amino-9(E/Z)-hydroxyimino-3H-fluoreno[2,3-d]imidazole] | 1.9 | 5.8 | 0.79 | 240 to 242 |  |  |  |  |  |  | 
ON=C1c2ccccc2-c2cc3[nH]nnc3cc21 (mixture of isomers) [Example C, 9(E/Z)-Hydroxyimino-3H-fluoreno[2,3-d]-1,2,3-triazole] | 1.47 | 0.571 | 0.213 |  | 18 | 0.68 | 10.4 | 11 |  |  | 
ON=C1c2cc(I)ccc2-c2cc3[nH]nnc3cc21 (mixture of isomers) [Example D, 9(E/Z)-Hydroxyimino-7-iodo-3H-fluoreno[2,3-d]-1,2,3-triazole] |  | 0.166 | 1.2 |  |  |  |  |  | 0.021 |  | 
O/N=C1/c2ccccc2-c2nc3nonc3nc21 [Comparison Ex. 1, reference compound] | 15.9 | 26.6 | 2.1 |  |  |  |  |  | 15 |  | 
Nc1cc2c(cc1[N+](=O)[O-])-c1ccccc1C2=NO [Comparison Ex. 2(a), reference compound] | 15.5 |  | 1.79 |  |  |  |  |  |  | 14 | 
Nc1cc2c(cc1N)-c1ccccc1C2=NO [Comparison Ex. 2(b), reference compound] | 0.923 | 8.1 | 3.21 |  |  |  |  |  | 0.604 |  | 
Nc1cc2c(cc1[N+](=O)[O-])-c1cc([N+](=O)[O-])c(N)cc1C2=NO [Comparison Ex. 2(c), reference compound] |  |  | 3.62 |  |  |  |  |  | 37 |  | 33
